Measurements from article PMC5855875, “Teixobactin analogues reveal enduracididine to be non-essential for highly potent antibacterial activity and lipid II binding” (Chemical Science, 2017).
In brackets after ≈: the same amount, converted by molar mass. Bridge positions count the residues as written; N and C are the ends. Square brackets hold non-standard residues; d marks the D form. Peptide text beside a SMILES is read from it. d(aIle) = CC[C@H](C)[C@@H](N)C(=O)O; dNMeF = CN[C@H](Cc1ccccc1)C(=O)O

Experiments:
MRSA ATCC 33591 = assay: microbe, parasite or virus in culture; conditions: ATCC 33591, 24 h
[1] = system: Staphylococcus aureus ATCC 29213; assay: microbe, parasite or virus in culture
Method: (§1) VIII. MIC testing (extended panel)
(§2) Bacterial cultures were grown overnight i n Mueller-Hinton Agar (MHA) plates and adjusted to a final concentration of 10 5 – 106 CFU/ml. 100 µl of inoculum in Meuller -Hinton broth (MHB) was mixed with equal volume of peptides (dissolved in MHB) at 2x their concentration in a 96 well plate. In parallel experiments, MIC values were determined in the media containing polysorbate 80 (0 .002%, v/v) to […]
(§3) prevent non-specific adsorption of the peptides to plastic surfaces. The final peptides concentrations […]
(§4) Positive and negative controls contained 200 µl of inoculum without any peptide dissolved in broth, respectively. The 96 well plates were then incubated at 37 °C for 24 h.
(§5) All the experiments were performed in two independent duplicates and the MIC was determined as the […]
(§6) Minimum bactericidal concentration
(§7) The lowest concentration in which no visible colonies could be detected was taken as the MBC.
(§8) 80. Strain information: MRSA 1: MRSA ATCC 700699, MRSA 2: MRSA DR 42412 (sputum), MRSA
(§9) 3: MRSA DM21455 (eye). […] Staphylococcus aureus ATCC

[2] = system: MRSA 3: MRSA DM21455 (eye); assay: microbe, parasite or virus in culture
Method: as §1, §2, §3, §4, §5, §6, §7, §8, §9

MRSA 1: MRSA ATCC 700699 = assay: microbe, parasite or virus in culture
Method: as §1, §2, §3, §4, §5, §6, §7, §8, §9

[3] = 1H DOSY at each titration point
[4] = system: MRSA 2: MRSA DR 42412 (sputum); assay: microbe, parasite or virus in culture
Method: as §1, §2, §3
(§10) Positive and negative controls contained 200 µl of inoculum without any peptide dissolved in broth, respectively. The 96 well plates were then incubated at 37 °C for 24 h. […]
as §8, §9

VRE 1: VRE ATCC 700802 = assay: organism not typed
Method: as §1, §2, §3, §10, §8, §9

VRE 2: VRE ATCC 29212 = assay: organism not typed
Method: as §1, §2, §3, §10, §8, §9

[5] = Lipid II TLC binding assay; conditions: peptide : lipid II 2 : 1; 50 mM Tris/HCl, pH 7.5, 30 min, room temperature; three independent experiments
Method: X. Complex formation of teixobactin with lipid II and geranyl pyrophosphate Complex formation of teixobactin analogues 8 (Ala10-teixobactin) and 16 (Arg10-teixobactin) with lipid II and geranyl pyrophosphate was performed using TLC as described previously.7 Binding of teixobactin to lipid II and geranyl pyrophosphate was analysed by incubating 30 µL of 2 nmol of each precursor with 2 or 4 nmoles of teixobactin in 50 mM Tris/HCl, pH 7.5, for 30 min at room temperature. Complex formation was analysed by extracting unbound precursors from the reaction mixture with 30 µL n- butanol/6M pyridine acetate (pH 4.2) (2:1; vol/vol) followed by TLC analysis of the organic layer using chloroform/methanol/water/ammonia (88:48:10:1, v/v/v/v) as the solvent and detection of lipid/phosphate containing precursors by phosphomolybdic acid staining. The TLC figures represent the results obtained through thr ee independent experiments.
Figure S76 : Binding of teixobactin analogues 8 (Ala10-teixobactin ) and 16 (Arg10-teixobactin) with lipid II using the protocols described in literature .7 Partial binding is observed when the ratio of lipid II to the analogue is 1:1 (indicated by lighter spots on the TLC) and complete binding is observed when the ratio of lipid II to the analogue is 1:2 in case of analogue 16 and 1:4 in case of analogue 8 (indicated […]
(also on this page, place not known: polyso rbate vancomycin , concentr ation 80 . wer e µ l (10 1-105 10 10 previously n - TL C three S76: (Ala10-teixobactin) literature.7 Lipid II Lipid II: Compound 8 = 1:1 Lipid II: Compound 16 = 1:1 Lipid II: Compound 8 = 1:2 Lipid II: Compound 16 = 1:2 Lipid II: Compound 8 = 1:4)

[6] = NMR titration with geranyl pyrophosphate (lipid II mimic); type: binding
Method: In order to evaluate target binding, we have performed the lipid II TLC binding assay[2] with Ala10-teixobactin. This assay provides qualitative binding data of Ala10-teixobactin with lipid II. […] Therefore, in order better understand the target binding of teixobactin analogues in a quantitative manner, extensive NMR studies (Fig. 6) on Ala10-teixobactin and geranyl pyrophosphate were performed.
This can occur due to intermediate exchange on the NMR time-scale, and therefore cooperative binding is not an obvious choice.

M. smegmatis ATCC 607 = assay: microbe, parasite or virus in culture; conditions: ATCC 607, 72 h
Method: were grown in Mueller Hinton broth (Oxoid) in triplicate. All incubations were at 37°C. Dilutions were carried out in triplicate. 100 µl of autoclaved Mueller Hinton broth was added to wells 2-12 in a 96-well plate. 200 µl of the peptide was added to well one at a concentration of 256 µg/mL. 100µl of peptide in well one was taken up and pipetted into well two. The mixture was then mixed via pipetting before 100µl was taken up and pipetted into well three. This process was repeated up to well 11. Once […]
peptide present. Thus, the concentrations (in µg/mL) were: 256, 128, 64, 32, 16, 8, 4, 2, 1, 0.5, 0.25 and no peptide present. Each well was then inoculated with 100µl of bacteria that had been diluted to an […]
This was repeated three times. The 96-well plates were then incubated at 37°C for 24 hours. The MIC was determined to be the lowest concentration at which there was no growth visible. […]
was repeated at an altered initial concentration of 64 µg/ml. Therefore, the new concentrations for MIC […]
Middlebrook 7H9 broth (SIGMA) supplemented to 5% Middlebrook ADC (SIGMA) growth

## CC[C@H](C)[C@H](NC(=O)[C@@H](Cc1ccccc1)NC)C(=O)N[C@@H](CO)C(=O)N[C@H](CCC(N)=O)C(=O)N[C@@H](C(=O)N[C@H](C(=O)N[C@@H](CO)C(=O)N[C@H]1C(=O)N[C@@H](C)C(=O)N[C@@H](C)C(=O)N[C@@H]([C@@H](C)CC)C(=O)O[C@H]1C)[C@@H](C)CC)[C@@H](C)CC [Compound 8, Ala10-teixobactin] (H-[dNMeF]IS[dQ][d(aIle)]IS[dT]AAI; ester 8-C)
MRSA ATCC 33591
  MIC: 1–2 μg mL^–1
[1]; ATCC 29213, 24 h
  MIC (without polysorbate 80): 4 µg/mL (≈ 3.45 µM)
[1]; S. aureus ATCC 29213, MHB containing polysorbate 80 (0.002%, v/v), 37 °C, 24 h
  MIC (with polysorbate 80): 1 µg/mL (≈ 0.863 µM)
[1]; Staphylococcus aureus ATCC 29213, plated on MHA, 37 °C, 24 h
  MBC: 2 μg mL^–1
[2]; 3: DM21455 (eye, 24 h)
  MIC: 1 μg mL^–1
  MIC (without polysorbate 80): 4 µg/mL (≈ 3.45 µM)
[2]; MRSA 3 (MRSA DM21455), plated on MHA, 37 °C, 24 h
  MBC: 2 μg mL^–1
[2]; MRSA 3, MHB containing polysorbate 80 (0.002%, v/v), 37 °C, 24 h
  MIC (with polysorbate 80): 1 µg/mL (≈ 0.863 µM)
MRSA 1: MRSA ATCC 700699; ATCC 700699, 24 h
  MIC: 4 μg mL^–1
  MIC (without polysorbate 80): 8 µg/mL (≈ 6.9 µM)
MRSA 1: MRSA ATCC 700699; MRSA 1 (MRSA ATCC 700699), plated on MHA, 37 °C, 24 h
  MBC: 16 μg mL^–1
MRSA 1: MRSA ATCC 700699; MRSA 1, MHB containing polysorbate 80 (0.002%, v/v), 37 °C, 24 h, two independent duplicates
  MIC (with polysorbate 80): 4 µg/mL (≈ 3.45 µM)
[3]
  aggregation in presence of geranyl pyrophosphate (diffusion coefficient): no aggregation occurred
[4]; 2: DR 42412 (sputum, 24 h)
  MIC: 1 μg mL^–1
  MIC (without polysorbate 80): 4 µg/mL (≈ 3.45 µM)
[4]; MRSA 2 (MRSA DR 42412), plated on MHA, 37 °C, 24 h
  MBC: 4 μg mL^–1
[4]; MRSA 2, MHB containing polysorbate 80 (0.002%, v/v), 37 °C, 24 h
  MIC (with polysorbate 80): 1 µg/mL (≈ 0.863 µM)
VRE 1: VRE ATCC 700802; ATCC 700802, 24 h
  MIC: 4 μg mL^–1
  MIC (without polysorbate 80): 8 µg/mL (≈ 6.9 µM)
VRE 1: VRE ATCC 700802; VRE 1, MHB containing polysorbate 80 (0.002%, v/v), 37 °C, 24 h
  MIC (with polysorbate 80): 4 µg/mL (≈ 3.45 µM)
VRE 2: VRE ATCC 29212; ATCC 29212, 24 h
  MIC: 4 μg mL^–1
  MIC (without polysorbate 80): 8 µg/mL (≈ 6.9 µM)
VRE 2: VRE ATCC 29212; VRE 2, MHB containing polysorbate 80 (0.002%, v/v), 37 °C, 24 h
  MIC (with polysorbate 80): 4 µg/mL (≈ 3.45 µM)
[5]
  lipid II spot on TLC: a small amount of lipid II was still visible on TLC
[6]; 2 Ile Hα, NMR titration of geranyl pyrophosphate
  Kd: 348 ± 18 µM
[6]; 3 Ser Hα, NMR titration of geranyl pyrophosphate
  Kd: 503 ± 8 µM
[6]; 4 D-Gln Hα, NMR titration of geranyl pyrophosphate
  Kd: 507 ± 2 µM
[6]; 5 D-Ile Hα, NMR titration of geranyl pyrophosphate
  Kd: 483 ± 4 µM
[6]; 7 Ser Hα, NMR titration of geranyl pyrophosphate
  Kd: 125 ± 3 µM
[6]; 8 D-Thr Hα, NMR titration of geranyl pyrophosphate
  Kd: 204 ± 3 µM
[6]; 9 Ala Hα, NMR titration of geranyl pyrophosphate
  Kd: 394 ± 4 µM
[6]; 10 Ala Hα, NMR titration of geranyl pyrophosphate
  Kd: 314 ± 3 µM
[6]; 11 Ile Hα, NMR titration of geranyl pyrophosphate
  Kd: 391 ± 4 µM
[6]; Net (Total), overall binding by PCA
  Kd: 138 ± 5 µM
M. smegmatis ATCC 607
  MIC: 1–2 μg mL^–1
